Measurements: patent US7749981B2, “Drug-eluting stents coated with non-nucleotide P2Y12 receptor antagonist compound” (Inspire Pharmaceuticals, Inc., priority 2005, dated 2010)
Like-named read-outs stand apart in the source and are kept apart here.

System: washed human platelets
Experiment: Inhibition of ADP-induced platelet aggregation in washed human platelets
Type: cell-based
Details: for IC50: agonist challenge (ADP) typically 1-5 μM, average of two experiments or more; for activity as antagonists of P2Y12-mediated platelet aggregation (in words): comment on Table 1 data
Protocol: Isolation of Platelets: Human blood is obtained from informed healthy adult volunteers. Blood is collected into one-sixth volume of acid/citrate/dextrose (ACD) buffer (85 mM sodium citrate, 65 mM citric acid, and 100 mM glucose). Collected blood is placed in a water bath at 37° C. for 30 minutes. Blood is then centrifuged at 275×g for 16 minutes at room temperature and the platelet-rich plasma is removed and centrifuged at 2200×g for 13 minutes at room temperature. The platelet pellet is resuspended in 40 mL of HEPES-buffered Tyrode's solution (137 mM NaCl, 2.7 mM KCl, 1 mM MgCl2, 2 mM CaCl2, 12 mM NaHCO3, 0.36 mM NaH2PO4, 5.5 mM glucose, 5 mM HEPES pH 7.4, 0.35% bovine serum albumin or 0.35% human serum albumin) containing 10 U/mL heparin and 5 μM (final concentration) prostaglandin 12 (PGI2). The platelet suspension is incubated in a 37° C. water bath for 10 minutes and then 5 μM (final conc.) PGI2 is added just before centrifugation at 1900×g for 8 minutes. The resulting pellet is resuspended in 40 mL of HEPES-buffered Tyrode's solution containing 5 μM (final concentration) PGI2 and then is incubated for 10 minutes in a 37° C. water bath. A small aliquot (500 μL) of the platelet suspension is removed for platelet counting. Prior to centrifugation 5 μM (final concentration) PGI2 is added to the suspension and then the suspension is centrifuged at 1900×g for 8 minutes. The pellet is resuspended at a density of 5×10^8 cells/mL in HEPES-buffered Tyrode's solution containing 0.05 U/mL apyrase.
Aggregation Studies: ADP-induced platelet aggregation is determined by measuring the transmission of light through a 0.5 ml suspension of stirred (1000 rpm) washed platelets in a lumi-aggregometer at 37° C. (Chrono-Log Corp. Havertown, Pa.). The baseline of the instrument is set using 0.5 ml of Hepes-buffered Tyrode's solution. Prior to aggregation measurements, the platelet suspension is supplemented with 1 mg/ml fibrinogen. Platelet aggregation is initiated by the addition of indicated concentrations of ADP or other agonists, and the light transmission is continuously recorded for at least 8 min. When inhibitors of platelet aggregation are tested, platelets are incubated for 2 min in the presence of indicated concentrations of inhibitor before addition of ADP or other agonists, and the response is recorded for at least 8 min. The potency of agonists and inhibitors of platelet aggregation is calculated from both the rate of aggregation and the maximal extent of aggregation obtained for each determination by fitting the data to a four-parameter logistic equation using the GraphPad software package (GraphPad Corp. San Diego, Calif.).
IC50 values represent the concentration of antagonist necessary to inhibit by 50% the aggregation elicited by a given concentration of ADP.
Platelet IC50 data were determined using washed human platelets, according to the protocol of example 14. Agonist challenge (ADP) typically in the range of 1-5 μM.

[1] = Homo sapiens, Platelet, read-out: PLATELET DATA IC50 (uM) Washed Platelets, washed human platelets
[2] = read-out: PLATELET DATA IC50 (uM) Washed Platelets, washed human platelets

| Compound | IC50 [1] | IC50 [2] | activity as antagonists of P2Y12-mediated platelet aggregation (in words) (washed human platelets) |
| --- | --- | --- | --- |
| CCCCCCNC(=O)Nc1ncnc2c1ncn2C1OC(COc2ncccc2C(=O)O)C2OC(c3ccccc3)OC21 (stereo not drawn) [Compound 24, 2-{6-[6-(3-Hexyl-ureido)-purin-9-yl]-2-phenyl-tetrahydro-furo[3,4-d][1,3]dioxol-4-ylmethoxy}-nicotinic acid] | 2.15 µM | – | show P2Y12 antagonist activity |
| 2-{6-[6-(3-Ethyl-ureido)-purin-9-yl]-2-phenylethynyl-tetrahydro-furo[3,4-d][1,3]dioxol-4-ylmethoxy}-nicotinic acid [Compound 26] | – | 1 µM | show P2Y12 antagonist activity |
| CS(=O)(=O)NC(=O)NCC1OC(n2cnc3c(NC(=O)Nc4ccccc4)ncnc32)C2OC(Cc3ccccc3)OC12 (stereo not drawn) [Compound 37, 1-(9-{2-Benzyl-6-[(3-methylsulfonyl-ureido)-methyl]-tetrahydro-furo[3,4-d][1,3]dioxol-4-yl}-9H-purin-6-yl)-3-phenyl-urea] | 15 µM | – | show P2Y12 antagonist activity |
| CC1(C)OC2C(COc3ccc(C(=O)O)cc3C(=O)O)OC(n3cnc4c(NC(=O)Nc5ccccc5)ncnc43)C2O1 (stereo not drawn) [Compound 1, 4-{2,2-Dimethyl-6-[6-(3-phenyl-ureido)-purin-9-yl]-tetrahydro-furo[3,4-d][1,3]dioxol-4-ylmethoxy}-isophthalic acid] | 6.6 µM | – | show P2Y12 antagonist activity |
| CCNC(=O)Nc1ncnc2c1ncn2C1CC(COCC(=O)O)C2OC(C=Cc3ccccc3)OC21 (stereo not drawn) [Compound 189, {6-[6-(3-Ethyl-ureido)-purin-9-yl]-2-trans-styryl-tetrahydro-cyclopenta[1,3]dioxol-4-ylmethoxy}-acetic acid] | – | 0.243 µM | P2Y12 antagonist activity can be obtained |
| CCNC(=O)Nc1ncnc2c1ncn2C1OC(CCc2c(F)cccc2C(=O)O)C2O[C@H](c3ccccc3)OC21 (stereo partly drawn) [Compound 158, 2-(2-{6-[6-(3-Ethyl-ureido)-purin-9-yl]-2-trans-phenyl-tetrahydro-furo[3,4-d][1,3]dioxol-4-yl}-ethyl)-3-fluoro-benzoic acid] | 8 µM | – | active molecules |
| CCNC(=O)Nc1ncnc2c1ncn2C1CC(CNC(=O)c2ccccc2C(=O)O)C2OC(C=Cc3ccccc3)OC21 (stereo not drawn) [Compound 239, N-{6-[6-(3-Ethyl-ureido)-purin-9-yl]-2-trans-styryl-tetrahydro-cyclopenta[1,3]dioxol-4-ylmethyl}-phthalamic acid] | – | 0.086 µM | show potent activity |
| O=C(Nc1ccccc1)Nc1ncnc2c1ncn2C1OC(COc2ncccc2C(=O)O)C2OC(c3ccccc3C(F)(F)F)OC21 (stereo not drawn) [Compound 14, 2-[6-[6-(3-Phenyl-ureido)-purin-9-yl]-2-(2-trifluoromethyl-phenyl)-tetrahydro-furo[3,4-d][1,3]dioxol-4-ylmethoxy]-nicotinic acid] | 8.1 µM | – | show P2Y12 antagonist activity |
| CCNC(=O)Nc1ncnc2c1ncn2C1CC(COCc2ncccc2C(=O)O)C2OC(/C=C/c3ccccc3)OC21 (stereo not drawn) [Compound 130, 2-{6-[6-(3-Ethyl-ureido)-purin-9-yl]-2-trans-styryl-tetrahydro-cyclopenta[1,3]dioxol-4-ylmethoxymethyl}-nicotinic acid] | – | 0.057 µM | – |
| CCNC(=O)Nc1ncnc2c1ncn2C1OC(C(=O)N2CCC[C@H]2C(=O)O)C2OC(c3ccccc3)OC21 (stereo in doubt) [Compound 69, 1-{6-[6-(3-Ethyl-ureido)-purin-9-yl]-2-trans-phenyl-tetrahydro-furo[3,4-d][1,3]dioxole-4-carbonyl}-L-pyrrolidine-2-carboxylic acid] | – | 0.441 µM | improved potency |
| O=C(Nc1ccccc1)Nc1ncnc2c1ncn2C1OC(COc2ncccc2C(=O)O)C2OC(c3ccc4ccccc4c3)OC21 (stereo not drawn) [Compound 19, 2-{2-Naphthalen-2-yl-6-[6-(3-phenyl-ureido)-purin-9-yl]-tetrahydro-furo[3,4-d][1,3]dioxol-4-ylmethoxy}-nicotinic acid] | 18 µM | – | show P2Y12 antagonist activity |

Further lines, with some results ahead:

| IC50 [1] | IC50 [2] | Compound | activity as antagonists of P2Y12-mediated platelet aggregation (in words) (washed human platelets) |
| --- | --- | --- | --- |
| 0.376 µM | – | CCNC(=O)Nc1ncnc2c1ncn2C1OC(CCC(=O)O)C2OC(C=Cc3ccccc3)OC21 (stereo not drawn) [Compound 183, 3-{6-[6-(3-Ethyl-ureido)-purin-9-yl]-2-styryl-tetrahydro-furo[3,4-d][1,3]dioxol-4-yl}-propionic acid] | P2Y12 antagonist activity can be obtained |
| 0.163 µM | – | CCNC(=O)Nc1ncnc2c1ncn2C1OC(C(=O)O)C2O[C@H](/C=C/c3ccccc3)OC21 (stereo partly drawn) [Compound 210, 6-[6-(3-Ethyl-ureido)-purin-9-yl]-2-trans-styryl-tetrahydro-furo[3,4-d][1,3]dioxole-4-carboxylic acid] | P2Y12 antagonist activity can be obtained |
| 0.728 µM | – | CCNC(=O)Nc1ncnc2c1ncn2C1OC(C(=O)N2CCC[C@H]2C(=O)O)C2O[C@H](c3ccccc3)OC21 (stereo partly drawn) [Compound 65, 1-{6-[6-(3-Ethyl-ureido)-purin-9-yl]-2-trans-phenyl-tetrahydro-furo[3,4-d][1,3]dioxole-4-carbonyl}-L-pyrrolidine-2-carboxylic acid] | improved potency |
| < 0.1 µM | 0.057 µM | CCNC(=O)Nc1ncnc2c1ncn2C1OC(COCc2ccccc2C(=O)O)C2O[C@H](c3ccccc3)OC21 (stereo partly drawn) [Compound 107, 2-{6-[6-(3-Ethyl-ureido)-purin-9-yl]-2-trans-phenyl-tetrahydro-furo[3,4-d][1,3]dioxol-4-ylmethoxymethyl}-benzoic acid] | – |
| < 0.1 µM | 0.098 µM | CCNC(=O)Nc1ncnc2c1ncn2C1OC(COCc2ccccc2C(=O)O)C2O[C@@H](c3ccccc3)OC21 (stereo partly drawn) [Compound 108, 2-{6-[6-(3-Ethyl-ureido)-purin-9-yl]-2-cis-phenyl-tetrahydro-furo[3,4-d][1,3]dioxol-4-ylmethoxymethyl}-benzoic acid] | – |
| 0.75 µM | – | O=C(Nc1ncnc2c1ncn2C1OC(C(=O)N2CCCC2C(=O)O)C2OC(Cc3ccccc3)OC21)NC1CCCC1 (stereo not drawn) [Compound 36, 1-{2-Benzyl-6-[6-(3-cyclopentyl-ureido)-purin-9-yl]-tetrahydro-furo[3,4-d][1,3]dioxole-4-carbonyl}-pyrrolidine-2-carboxylic acid] | show P2Y12 antagonist activity |
| 0.503 µM | – | CCNC(=O)Nc1ncnc2c1ncn2C1CC(COC(=S)NCC(=O)O)C2O[C@H](/C=C/c3ccccc3)OC21 (stereo partly drawn) [Compound 233, {6-[6-(3-Ethyl-ureido)-purin-9-yl]-2-trans-styryl-tetrahydro-cyclopenta[1,3]dioxol-4-ylmethoxythiocarbonylamino}-acetic acid] | show P2Y12 antagonist activity |
| 0.397 µM | – | CCNC(=O)Nc1ncnc2c1ncn2C1OC(C(=O)N2CCC[C@@H]2C(=O)O)C2O[C@H](/C=C/c3ccccc3)OC21 (stereo partly drawn) [Compound 70, 1-{6-[6-(3-Ethyl-ureido)-purin-9-yl]-2-trans-styryl-tetrahydro-furo[3,4-d][1,3]dioxole-4-carbonyl}-D-pyrrolidine-2-carboxylic acid] | improved potency |
| 0.081 µM | – | CCNC(=O)Nc1ncnc2c1ncn2C1CC(COCc2ccsc2C(=O)O)C2OC(C=Cc3ccccc3)OC21 (stereo not drawn) [Compound 298, 3-{6-[6-(3-Ethyl-ureido)-purin-9-yl]-2-styryl-tetrahydro-cyclopenta[1,3]dioxol-4-ylmethoxymethyl}-thiophene-2-carboxylic acid] | are active |
